Data published in patent US6617127B2, “Synthesis and recovery of aspartame involving enzymatic deformylation step” (Holland Sweetener Company, V.O.F., priority 1998, dated 2003).
Residues, ends and D or L forms follow the SMILES beside them. *: point of attachment. For = O=C*

Columns and labels:
[1] = biological target: T1, EC 3.5.1.27 PDF (Fe^2+) enzyme (Escherichia coli, UniProt P0A6K3); test: Deformylation reactions with PDF (Fe^2+), free amino compound determined by TNBS; type: biochemical, E. coli; settings: for yield (%) of deformylated product: 100 mM substrate, 0.2 mM PDF (Fe^2+), MES/KOH pH 6.2, 250 mM KCl, 37° C., after 10 hours; for inhibition of the PDF in the deformylation of F-α-AP and F-α-APM: presence of the β-form
T1 construct: made in house; host or cells: E. coli (overproducing cells)
T1 sequence (P0A6K3 1-169): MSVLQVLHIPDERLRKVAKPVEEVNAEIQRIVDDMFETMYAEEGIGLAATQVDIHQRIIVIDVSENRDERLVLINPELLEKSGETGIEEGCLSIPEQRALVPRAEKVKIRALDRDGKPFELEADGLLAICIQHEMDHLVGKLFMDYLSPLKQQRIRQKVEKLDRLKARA
Procedure: An EC 3.5.1.27 PDF (Fe^2+) enzyme was isolated from overproducing E. coli cells grown at 30° C. in 1.6 l TB medium for 14-16 hours. […] After washing with 120 ml of 20 mM Hepes/KOH, 100 mM KF, 0.2 mM TCEP, pH 7.7, the PDF (Fe^2+) was eluted with 150 ml 20 mM Hepes/KOH, 100 mM KCl, 0.2 mM TCEP, pH 7.7. […] After adjustment of the TCEP concentration to 1 mM and protein concentration to 40 mg/ml PDF (Fe^2+) was stored frozen at −60° C.
Compounds (100 mM) as indicated in Table 2 for each separate Example were incubated in the presence of 100 mM aqueous 2-(N-morpholino)-ethanesulphonic acid (MES)/KOH buffer pH=6.2 and 250 mM KCl at 37° C. […] Following a brief centrifugation, the amount of deformylated compounds in the supernatant was determined by trinitrobenzene sulphonic acid (TNBS) according to the method of Fields (Methods in Enzymology, 25, 464-468 (1972)), using ε420=21.2 mM^−1 cm^−1. The amount of (deformylated) compound each time was corrected for the intrinsic amount of free amino compound which was detected without incubation with the PDF.
The product yields indicated are the yields after 10 hours of reaction time.
In addition, the catalytic properties of the PDF in the deformylation reactions of F-α-AP and F-α-APM (in particular the initial reaction rates for deformylation in resp. 1 hour for F-α-APM and 3 hours for F-α-AP) were determined by performing the reactions of Examples 1 and 2 at various substrate concentrations from 2-140 mM. In particular, the following catalytic properties of the enzyme were determined: […]

penicillin-acylase = settings: after 36 hours, 50 U of enzyme and 2 g of F-α-APM; cited from earlier work
[2] = test system: immobilized penicillin-acylase; test: Comparative Example D: deformylation of F-α-APM with penicillin-acylase, TLC; type: biochemical; settings: 1 g F-α-APM in 25 ml, 0.2 g enzyme preparation, pH 6,5, 37° C., 48 hours
Procedure: 1 g of F-α-APM was dissolved in 25 ml of distilled water and the pH was adjusted to 6,5 by the addition of 0.1 M aqueous NaOH. Then, 0.2 g of an immobilized penicillin-acylase preparation was added. The reaction mixture was allowed to stand for 48 hours at 37° C. At regular time intervals during the reaction, samples were taken and analyzed by thin layer chromatography using α-APM as a reference substance.

[3] = Activity assay of isolated PDF (Fe^2+); type: biochemical; settings: 5 mM formylmethionyl-alanine, 30° C., pH=7.2
Procedure: An EC 3.5.1.27 PDF (Fe^2+) enzyme was isolated from overproducing E. coli cells grown at 30° C. in 1.6 l TB medium for 14-16 hours. About 13 g (wet weight) of cell paste were suspended in 26 ml buffer (20 mM Hepes/KOH, 100 mM KF, pH 7.7 supplemented with 10 μg/ml catalase from bovine liver (Boehringer Mannheim) and 1 mM AEBSF, disintegrated by sonification (Branson B12, 20 min) at 0° C. and centrifuged at 200.000 g for 1 hour. The clear supernatant (1.3 g of protein; according to biurete reaction) was mixed with 1.3 ml 10% (w/v) Polymin G-35 (BASF) adjusted to pH 7.7 and centrifuged at 40.000 g for 10 minutes. The supernatant was applied to a 20 ml Met-Lys-Sepharose column that had been equilibrated with 20 mM Hepes/KOH, 100 mM KF, 0.2 mM TCEP, pH 7.7. After washing with 120 ml of 20 mM Hepes/KOH, 100 mM KF, 0.2 mM TCEP, pH 7.7, the PDF (Fe^2+) was eluted with 150 ml 20 mM Hepes/KOH, 100 mM KCl, 0.2 mM TCEP, pH 7.7. The protein containing fractions were concentrated by ultrafiltration using an Amicon PM10 membrane (yield: 140 mg protein, having an activity of 800 IU/mg; assay conditions: 5 mM formylmethionyl-alanine, 30° C., pH=7.2). After adjustment of the TCEP concentration to 1 mM and protein concentration to 40 mg/ml PDF (Fe^2+) was stored frozen at −60° C.

[4] = substrate: O=CN[C@@H](CC(=O)N[C@@H](Cc1ccccc1)C(=O)O)C(=O)O; test: Deformylation reactions with PDF (Fe^2+), free amino compound determined by TNBS; type: biochemical, E. coli; settings: other: PDF (Fe^2+), pH 6.2, 37° C.
[5] = substrate: COC(=O)[C@H](Cc1ccccc1)NC(=O)[C@H](CC(=O)O)NC=O; test: as above; type: biochemical, E. coli; settings: other: substrate concentrations 2-140 mM, initial reaction rates
[6] = substrate: O=CN[C@@H](CC(=O)O)C(=O)N[C@@H](Cc1ccccc1)C(=O)O; test: as above; type: biochemical, E. coli; settings: other: substrate concentrations 2-140 mM, initial reaction rates
[7] = substrate: COC(=O)[C@H](Cc1ccccc1)NC(=O)C[C@H](NC=O)C(=O)O; test: as above; type: biochemical, E. coli; settings: other: PDF (Fe^2+), pH 6.2, 37° C.

O=CN[C@@H](CC(=O)O)C(=O)O [F-Asp, N-formyl-L-aspartic acid]
yield (%) of deformylated product [1]: 0.5%

COC(=O)[C@H](Cc1ccccc1)NC(=O)[C@H](CC(=O)O)NC=O [F-α-APM, N-formyl-α-L-aspartyl-L-phenylalanine methyl ester] (For-Asp-Phe-OMe)
yield of deformylation (penicillin-acylase): 20% | formation of α-APM from F-α-APM [2]: In none of the samples taken, formation of α-APM from F-α-APM could be demonstrated | yield (%) of deformylated product [1]: 44.2%

O=CN[C@@H](CC(=O)N[C@@H](Cc1ccccc1)C(=O)O)C(=O)O [F-β-AP, N-formyl-β-L-aspartyl-L-phenylalanine]
yield (%) of deformylated product [1]: 1.1% | inhibition of the PDF in the deformylation of F-α-AP and F-α-APM [1]: does not give any inhibition

COC(=O)[C@H](Cc1ccccc1)NC(=O)C[C@H](NC=O)C(=O)O [F-β-APM, N-formyl-β-L-aspartyl-L-phenylalanine methyl ester]
yield (%) of deformylated product [1]: 0.2% | inhibition of the PDF in the deformylation of F-α-AP and F-α-APM [1]: does not give any inhibition

O=CN[C@@H](CC(=O)O)C(=O)N[C@@H](Cc1ccccc1)C(=O)O [F-α-AP, N-formyl-α-L-aspartyl-L-phenylalanine] (For-Asp-Phe-OH)
yield (%) of deformylated product [1]: 21.6%

B1: PDF (Fe^2+): EC 3.5.1.27 formylmethionyl peptide deformylase with Fe^2+ co-factor, isolated from overproducing E. coli cells (protein, UniProt P0A6K3 2-169, looked up)
Peptide deformylase: SVLQVLHIPDERLRKVAKPVEEVNAEIQRIVDDMFETMYAEEGIGLAATQVDIHQRIIVIDVSENRDERLVLINPELLEKSGETGIEEGCLSIPEQRALVPRAEKVKIRALDRDGKPFELEADGLLAICIQHEMDHLVGKLFMDYLSPLKQQRIRQKVEKLDRLKARA
modifications: Fe2+ cofactor
notes: EC 3.5.1.27 formylmethionyl peptide deformylase with Fe^2+ co-factor, isolated from overproducing E. coli cells
activity of the enzyme [3]: 800 IU/mg

B2: EC 3.5.1.27 PDF (Fe^2+) enzyme (Escherichia coli K-12) (protein)
chain: MSVLQVLHIPDERLRKVAKPVEEVNAEIQRIVDDMFETMYAEEGIGLAATQVDIHQRIIVIDVSENRDERLVLINPELLEKSGETGIEEGCLSIPEQRALVPRAEKVKIRALDRDGKPFELEADGLLAICIQHEMDHLVGKLFMDYLSPLKQQRIRQKVEKLDRLKARA
notes: made in house; host or cells: E. coli (overproducing cells)
kcat/Km [4]: < 0.0001 M⁻¹ s⁻¹ | Km [5]: 25.3 mM | kcat [5]: 0.0117 s⁻¹ | kcat/Km [5]: 0.46 M⁻¹ s⁻¹ | Km [6]: 12.3 mM | kcat [6]: 0.00333 s⁻¹ | kcat/Km [6]: 0.27 M⁻¹ s⁻¹ | kcat/Km [7]: < 0.0001 M⁻¹ s⁻¹
